As a reminder, the IC50 is the concentration that inhibits the measured activity by half. Low values mean greater potency, high ones weaker potency.

The target of the experiment is T1, ATP citrate lyase (ACLY) (Homo sapiens, UniProt P53396).
T1 construct: ACLY (His)
T1 sequence (P53396 1-1101): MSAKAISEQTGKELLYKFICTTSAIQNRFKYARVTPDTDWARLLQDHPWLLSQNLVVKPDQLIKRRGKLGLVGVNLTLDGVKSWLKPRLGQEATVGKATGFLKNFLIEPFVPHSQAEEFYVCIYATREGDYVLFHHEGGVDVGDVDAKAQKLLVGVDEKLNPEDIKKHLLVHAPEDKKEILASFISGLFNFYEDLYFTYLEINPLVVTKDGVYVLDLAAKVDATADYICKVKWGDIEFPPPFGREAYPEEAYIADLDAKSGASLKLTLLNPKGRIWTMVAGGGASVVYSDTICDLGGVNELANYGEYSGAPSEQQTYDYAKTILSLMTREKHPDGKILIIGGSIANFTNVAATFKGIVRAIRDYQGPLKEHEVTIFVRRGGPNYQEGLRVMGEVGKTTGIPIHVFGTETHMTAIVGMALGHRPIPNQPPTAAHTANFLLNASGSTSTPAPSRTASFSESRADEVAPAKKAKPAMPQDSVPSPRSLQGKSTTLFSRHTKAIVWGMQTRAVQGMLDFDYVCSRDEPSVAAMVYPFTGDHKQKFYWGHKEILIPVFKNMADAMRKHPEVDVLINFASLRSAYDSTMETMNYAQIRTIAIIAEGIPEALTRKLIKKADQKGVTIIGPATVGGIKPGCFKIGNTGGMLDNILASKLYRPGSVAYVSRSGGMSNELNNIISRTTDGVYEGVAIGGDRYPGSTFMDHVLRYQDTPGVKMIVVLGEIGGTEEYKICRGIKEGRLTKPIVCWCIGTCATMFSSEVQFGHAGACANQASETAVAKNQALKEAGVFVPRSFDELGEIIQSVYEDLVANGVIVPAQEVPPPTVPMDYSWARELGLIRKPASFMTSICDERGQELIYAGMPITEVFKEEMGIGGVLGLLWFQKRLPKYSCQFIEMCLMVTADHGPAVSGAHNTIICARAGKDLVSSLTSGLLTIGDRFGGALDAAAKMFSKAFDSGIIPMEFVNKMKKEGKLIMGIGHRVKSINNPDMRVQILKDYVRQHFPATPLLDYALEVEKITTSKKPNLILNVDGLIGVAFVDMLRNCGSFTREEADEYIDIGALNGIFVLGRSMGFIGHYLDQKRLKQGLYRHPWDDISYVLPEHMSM
The experiment is described as follows: ADP-Glo ADP-coupled enzymatic assay. Format: biochemical. For orientation: ADP-Glo turns the ADP formed in a reaction into a luminescent signal.

Consider `CC(/C=C/C=C(\C)C(=O)O[C@@H]1O[C@H](CO)[C@@H](O)[C@H](O)[C@H]1O)=C\C=C\C=C(C)\C=C\C=C(/C)C(=O)O[C@@H]1O[C@H](CO[C@@H]2O[C@H](CO)[C@@H](O)[C@H](O)[C@H]2O)[C@@H](O)[C@H](O)[C@H]1O` [compound 2, crocin II], for which the IC50 was determined as 29.7 ± 7.41 µM.

In the case of `CC(/C=C/C=C(\C)C(=O)O[C@@H]1O[C@H](CO[C@@H]2O[C@H](CO)[C@@H](O)[C@H](O)[C@H]2O)[C@@H](O)[C@H](O)[C@H]1O)=C\C=C\C=C(C)\C=C\C=C(/C)C(=O)O[C@@H]1O[C@H](CO[C@@H]2O[C@H](CO)[C@@H](O)[C@H](O)[C@H]2O)[C@@H](O)[C@H](O)[C@H]1O` [compound 1, crocin I], the half-maximal inhibitory concentration (IC50) stood at 36.3 ± 6.24 µM.
